# Assay results published in PubChem BioAssay AID2060513 (Molecular Pharmacology Branch, DTP, NCI, 2025).
# Several values for one entry are separate records, joined by “and”; a condition that tells them apart may be missing. Identical values can stand only once.
# System: 299254-011-R-J1-PDC complex spheroids viability
# Assay: Anticancer human tumor 299254-011-R-J1-PDC patient-derived melanoma cell line growth inhibition [GQUAD]
# Settings: for viability, T/C: stronger effect = lower value
# Source text: DNA G-quadruplex Stabilizer Agents in Combinations in Complex Spheroids
# A high-throughput screen of multi-cell type tumor spheroids was designed to identify active combinations of DNA G-quadruplex stabilizer agents and targeted small molecules. Complex spheroids include a stromal component modeled by human endothelial cells (HUVEC) and fibroblasts modeled by human mesenchymal stem cells (MSCs). The concentration ranges selected for each drug and investigational agent were based upon clinically achievable concentrations if the clinical Cmax of the agent was known.
# Compounds. The drugs and investigational agents: pidnarulex (CX-5461; NSC782164), APTO-253 (NSC789042), BRACO-19 (NSC847499), peposertib (NSC802822), ceralasertib (NSC780249), elimusertib (NSC800525), camonsertib (NSC841442), AZD-1390 (NSC803789), olaparib (NSC753686), talazoparib (NSC767125), ART-558 (NSC835418), sotorasib (NSC818433), MRTX-1133 (NSC836407), SN-38 (NSC673596), topotecan (NSC609699), etoposide (NSC141540), doxorubicin (NSC123127), gemcitabine (NSC613327), 5-fluorouracil (NSC19893), paclitaxel (NSC125973), vemurafenib (NSC761431), panobinostat (NSC761190), R-306465 (JNJ-16241199; NSC773264), adavosertib (NSC754352), TP-3654 (NSC805149), carboplatin (NSC241240), KSQ-4279 (NSC840948), and staurosporine (NSC755774) were obtained from the National Cancer Institute (NCI) Developmental Therapeutics Program Chemical Repository (34). The FDA-approved anticancer drug set is available from the NCI Developmental Therapeutics Program. […] The stock solutions were prepared in dimethyl sulfoxide (DMSO, Sigma-Aldrich, St. Louis, MO, cat. D2650) at 800-fold the tested concentration and stored at -70 degrees C prior to their use. All drugs and investigational agents were tested over a range starting from a high concentration at or near the clinical Cmax and decreasing in half-log increments. If the clinical Cmax for an agent had not been determined, the highest concentration tested was 10 microM.
# 2.3 Cell Culture. All cells were maintained in an incubator at 37 degrees C and 5% CO2 with 95% humidity. The PDC lines were cultured according to standard operating procedures established by the NCI PDMR. All PDCs were thawed and cultured in Matrigel-coated flasks prepared with a working solution of 1X Ham's F-12 nutrient mix, without supplementation (Invitrogen, cat. 11765054), 100 U/mL penicillin-streptomycin (Invitrogen, cat. 15140122), and 2.5% Matrigel (Corning Inc., cat. 354248) for the first three passages. The 857933-349-R-J2-PDC line was cultured in 6C/Colon 1B media, which includes advanced DMEM/F-12 (Thermo Fisher Scientific, cat. 12634028), 10 mM HEPES (Thermo Fisher Scientific, cat. 15630080), 1X GlutaMAX supplement (Thermo Fisher Scientific, cat. 35050061), 0.1 mg/mL primocin (InvivoGen, cat. ant-pm-2), 10% defined fetal bovine serum, heat inactivated (HyClone Laboratories Inc., cat. SH30070.03HI), 50% L-WRN conditioned media (ATCC, cat. CRL-3276), 1.25 mM N-Acetyl-L-cysteine (Sigma-Aldrich, cat. A9165), 10 mM nicotinamide (Sigma-Aldrich, cat. N0636), 1X B-27 supplement (Thermo Fisher Scientific, cat. 17504044), 1X N-2 supplement (Thermo Fisher Scientific, cat. 17502048), 10 microM Y-27632 dihydrochloride (Tocris Bioscience, cat. 1254), and 50 ng/mL human EGF recombinant protein (Thermo Fisher Scientific, cat. PHG0311). The 485176-168-R4-J1-PDC line was cultured in Panc media, which includes all 6C/Colon 1B media components plus 100 ng/mL human FGF-10 (Thermo Fisher Scientific, cat. 100-26), 500 nM SB-431542 (Selleckchem, cat. S1067), and gastrin (Tocris, cat. 3006).
# […]
# [1] = curve of first compound, second compound 0.0316 µM
# [2] = curve of first compound, second compound 0.1 µM
# [3] = curve of first compound, second compound 0.316 µM
# [4] = curve of first compound, second compound 1 µM
# [5] = curve of first compound, second compound 3.16 µM
# [6] = curve of first compound, second compound 10 µM
# [7] = second compound 0.0316 µM, first compound 0.0316 µM
# [8] = second compound 0.0316 µM, first compound 0.1 µM
# [9] = second compound 0.0316 µM, first compound 0.316 µM
# [10] = second compound 0.0316 µM, first compound 1 µM
# [11] = second compound 0.0316 µM, first compound 3.16 µM
# [12] = second compound 0.0316 µM, first compound 10 µM
# [13] = second compound 0.1 µM, first compound 0.0316 µM
# [14] = second compound 0.1 µM, first compound 0.1 µM
# [15] = second compound 0.1 µM, first compound 0.316 µM
# [16] = second compound 0.1 µM, first compound 1 µM
# [17] = second compound 0.1 µM, first compound 3.16 µM
# [18] = second compound 0.1 µM, first compound 10 µM
# [19] = second compound 0.316 µM, first compound 0.0316 µM
# [20] = second compound 0.316 µM, first compound 0.1 µM
# [21] = second compound 0.316 µM, first compound 0.316 µM
# [22] = second compound 0.316 µM, first compound 1 µM
# [23] = second compound 0.316 µM, first compound 3.16 µM
# [24] = second compound 0.316 µM, first compound 10 µM
# [25] = second compound 1 µM, first compound 0.0316 µM
# [26] = second compound 1 µM, first compound 0.1 µM
# [27] = second compound 1 µM, first compound 0.316 µM
# [28] = second compound 1 µM, first compound 1 µM
# [29] = second compound 1 µM, first compound 3.16 µM
# [30] = second compound 1 µM, first compound 10 µM
# [31] = second compound 3.16 µM, first compound 0.0316 µM
# [32] = second compound 3.16 µM, first compound 0.1 µM
# [33] = second compound 3.16 µM, first compound 0.316 µM
# [34] = second compound 3.16 µM, first compound 1 µM
# [35] = second compound 3.16 µM, first compound 3.16 µM
# [36] = second compound 3.16 µM, first compound 10 µM
# [37] = second compound 10 µM, first compound 0.0316 µM
# [38] = second compound 10 µM, first compound 0.1 µM
# [39] = second compound 10 µM, first compound 0.316 µM
# [40] = second compound 10 µM, first compound 1 µM
# [41] = second compound 10 µM, first compound 3.16 µM
# [42] = second compound 10 µM, first compound 10 µM
# 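Also: spheroids exposed to the agents for seven days before readout.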
# 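For viability, T/C in this document: percent viability relative to DMSO vehicle control wells = 100%.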
structure (smiles),measurement,setting,value
CC1COCCN1c1cc(-c2ccnn2C)c2ccnc(-c3ccn[nH]3)c2n1 (stereo unspecified),"viability, T/C",compound 0.0316 µM,91.4% and 103% and 81.2%
same,"viability, T/C",compound 0.1 µM,51.7% and 66.5% and 56.5%
same,"viability, T/C",compound 0.316 µM,36.6% and 36.5% and 32.7%
same,"viability, T/C",compound 1 µM,17.9% and 19.7% and 18.7%
same,"viability, T/C",compound 3.16 µM,22.7% and 13.6% and 13.7%
same,"viability, T/C",compound 10 µM,11.9% and 15.1% and 13.6%
same,IC50,curve of compound,0.122 µM and 0.186 µM and 0.137 µM
Nc1ccn(C2OC(CO)C(O)C2(F)F)c(=O)n1 (stereo unspecified) + Cc1cnc(CNC(=O)c2c(=O)c3ccc(N4CCCN(C)CC4)nc3n3c2sc2ccccc23)cn1,IC50,[1],> 10 µM
same,IC50,[2],0.282 µM
same,IC50,[3],> 10 µM
same,IC50,[4],1 µM
same,IC50,[5],0.835 µM
same,IC50,[6],< 0.0316 µM
same,"viability, T/C",[7],102%
same,"viability, T/C",[8],76.5%
same,"viability, T/C",[9],64.3%
same,"viability, T/C",[10],44.7%
same,"viability, T/C",[11],56.7%
same,"viability, T/C",[12],68%
same,"viability, T/C",[13],90.4%
same,"viability, T/C",[14],72%
same,"viability, T/C",[15],45.6%
same,"viability, T/C",[16],48%
same,"viability, T/C",[17],50.1%
same,"viability, T/C",[18],46.7%
same,"viability, T/C",[19],80.5%
same,"viability, T/C",[20],78.8%
same,"viability, T/C",[21],69%
same,"viability, T/C",[22],56.1%
same,"viability, T/C",[23],54.3%
same,"viability, T/C",[24],70.3%
same,"viability, T/C",[25],85.6%
same,"viability, T/C",[26],87%
same,"viability, T/C",[27],48.7%
same,"viability, T/C",[28],44.5%
same,"viability, T/C",[29],60.5%
same,"viability, T/C",[30],58.8%
same,"viability, T/C",[31],79.3%
same,"viability, T/C",[32],69.3%
same,"viability, T/C",[33],64.6%
same,"viability, T/C",[34],42.9%
same,"viability, T/C",[35],54.4%
same,"viability, T/C",[36],44.6%
same,"viability, T/C",[37],50%
same,"viability, T/C",[38],24.9%
same,"viability, T/C",[39],47.8%
same,"viability, T/C",[40],49.9%
same,"viability, T/C",[41],48.3%
same,"viability, T/C",[42],0.4%
CC(=O)O[C@H]1C(=O)[C@@]2(C)[C@H]([C@H](OC(=O)c3ccccc3)[C@]3(O)C[C@H](OC(=O)[C@H](O)[C@@H](NC(=O)c4ccccc4)c4ccccc4)C(C)=C1C3(C)C)[C@]1(OC(C)=O)CO[C@@H]1C[C@@H]2O + CN(C)c1ccc(Nc2c3ccc(NC(=O)CCN4CCCC4)cc3nc3cc(NC(=O)CCN4CCCC4)ccc23)cc1,IC50,[1],0.461 µM
same,IC50,[2],0.364 µM
same,IC50,[3],0.271 µM
same,IC50,[4],0.316 µM
same,IC50,[5],0.489 µM
same,IC50,[6],0.524 µM
same,"viability, T/C",[7],73.9%
same,"viability, T/C",[8],84.6%
same,"viability, T/C",[9],60.9%
same,"viability, T/C",[10],26.3%
same,"viability, T/C",[11],19%
same,"viability, T/C",[12],17.5%
same,"viability, T/C",[13],83.8%
same,"viability, T/C",[14],87.4%
same,"viability, T/C",[15],51.9%
same,"viability, T/C",[16],23.7%
same,"viability, T/C",[17],14.5%
same,"viability, T/C",[18],11.2%
same,"viability, T/C",[19],81.5%
same,"viability, T/C",[20],96%
same,"viability, T/C",[21],44%
same,"viability, T/C",[22],37.1%
same,"viability, T/C",[23],22.6%
same,"viability, T/C",[24],16.4%
same,"viability, T/C",[25],93.8%
same,"viability, T/C",[26],78%
same,"viability, T/C",[27],49.8%
same,"viability, T/C",[28],28.6%
same,"viability, T/C",[29],19.1%
same,"viability, T/C",[30],17.7%
same,"viability, T/C",[31],89.1%
same,"viability, T/C",[32],83.8%
same,"viability, T/C",[33],60.6%
same,"viability, T/C",[34],32.2%
same,"viability, T/C",[35],19.1%
same,"viability, T/C",[36],16.4%
same,"viability, T/C",[37],83.3%
same,"viability, T/C",[38],84.3%
same,"viability, T/C",[39],62.7%
same,"viability, T/C",[40],33%
same,"viability, T/C",[41],17.4%
same,"viability, T/C",[42],15.1%
